Source: publication PMC7034394 (Journal of medicinal chemistry, 2019)
Entries after “also recorded” stand apart in the source; their conditions may differ. Each block holds one compound with its values, some of them ahead of it.

What was measured:
[1] = Pharmacokinetics in mice, serum concentration by LC/MS; assay type: in vivo; conditions: for bioavailability: mouse, serum, po
loperamide-treated mice [2] = conditions: cited from earlier work
slc26a3 (DRA) = target: T1, slc26a3 (DRA) (Mus musculus, UniProt Q9WVC8); assay type: cell-based, murine; conditions: for slc26a3 inhibition at 5 μM: 5 μM compound
T1 sequence (Q9WVC8 1-757): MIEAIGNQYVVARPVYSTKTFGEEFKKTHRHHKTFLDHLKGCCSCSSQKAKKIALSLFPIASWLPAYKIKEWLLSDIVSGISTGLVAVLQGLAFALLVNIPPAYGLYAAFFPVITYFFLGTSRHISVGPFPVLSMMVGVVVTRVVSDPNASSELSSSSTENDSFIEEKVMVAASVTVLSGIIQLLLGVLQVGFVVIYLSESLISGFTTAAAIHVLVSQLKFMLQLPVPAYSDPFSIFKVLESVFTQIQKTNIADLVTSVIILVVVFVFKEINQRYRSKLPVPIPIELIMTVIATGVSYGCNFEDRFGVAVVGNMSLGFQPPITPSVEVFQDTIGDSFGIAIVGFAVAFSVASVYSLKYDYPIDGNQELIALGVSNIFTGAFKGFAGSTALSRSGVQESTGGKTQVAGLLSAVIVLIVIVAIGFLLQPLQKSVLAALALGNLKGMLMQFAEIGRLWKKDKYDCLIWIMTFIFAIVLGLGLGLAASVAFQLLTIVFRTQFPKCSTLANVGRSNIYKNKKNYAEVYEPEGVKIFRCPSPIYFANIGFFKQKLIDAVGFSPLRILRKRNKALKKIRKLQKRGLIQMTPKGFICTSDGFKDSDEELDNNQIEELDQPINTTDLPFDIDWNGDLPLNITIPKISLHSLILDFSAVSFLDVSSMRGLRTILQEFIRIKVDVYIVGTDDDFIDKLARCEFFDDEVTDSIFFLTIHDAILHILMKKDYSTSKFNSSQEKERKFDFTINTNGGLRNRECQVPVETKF

loperamide-treated mice [3] = test: Loperamide-induced constipation model in mice; assay type: in vivo; conditions: for Stool water content: 3 h stool
SLC26A9 = target: T2, SLC26A9 (Homo sapiens, UniProt Q7LBE3); assay type: cell-based; conditions: 10 μM compound, 10 min preincubation
T2 sequence (Q7LBE3 1-791): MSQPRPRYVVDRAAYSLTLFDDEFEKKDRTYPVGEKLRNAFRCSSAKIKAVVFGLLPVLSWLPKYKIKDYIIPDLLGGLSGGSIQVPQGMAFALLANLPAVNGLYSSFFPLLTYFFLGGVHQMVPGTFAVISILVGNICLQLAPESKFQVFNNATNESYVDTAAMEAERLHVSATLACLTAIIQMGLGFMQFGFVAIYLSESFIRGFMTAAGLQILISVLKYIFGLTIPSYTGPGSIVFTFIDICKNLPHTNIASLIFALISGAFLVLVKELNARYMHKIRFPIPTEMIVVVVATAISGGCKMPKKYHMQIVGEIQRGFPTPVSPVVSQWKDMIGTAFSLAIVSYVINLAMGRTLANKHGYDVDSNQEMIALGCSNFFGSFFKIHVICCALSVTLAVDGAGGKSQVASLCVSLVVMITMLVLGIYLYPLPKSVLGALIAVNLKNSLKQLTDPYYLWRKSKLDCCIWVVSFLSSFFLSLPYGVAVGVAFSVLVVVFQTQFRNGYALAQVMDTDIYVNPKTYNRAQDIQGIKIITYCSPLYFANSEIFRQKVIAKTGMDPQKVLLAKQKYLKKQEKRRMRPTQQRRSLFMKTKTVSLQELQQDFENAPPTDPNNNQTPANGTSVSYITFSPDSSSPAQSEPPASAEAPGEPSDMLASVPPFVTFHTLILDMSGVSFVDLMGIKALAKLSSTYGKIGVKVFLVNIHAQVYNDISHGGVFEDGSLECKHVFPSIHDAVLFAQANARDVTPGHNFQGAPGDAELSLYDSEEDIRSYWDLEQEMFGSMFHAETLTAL

slc26a4 (pendrin) = target: T3, slc26a4 (pendrin) (Mus musculus, UniProt Q9R155); assay type: cell-based, murine; conditions: 10 μM compound, 10 min preincubation
T3 sequence (Q9R155 1-780): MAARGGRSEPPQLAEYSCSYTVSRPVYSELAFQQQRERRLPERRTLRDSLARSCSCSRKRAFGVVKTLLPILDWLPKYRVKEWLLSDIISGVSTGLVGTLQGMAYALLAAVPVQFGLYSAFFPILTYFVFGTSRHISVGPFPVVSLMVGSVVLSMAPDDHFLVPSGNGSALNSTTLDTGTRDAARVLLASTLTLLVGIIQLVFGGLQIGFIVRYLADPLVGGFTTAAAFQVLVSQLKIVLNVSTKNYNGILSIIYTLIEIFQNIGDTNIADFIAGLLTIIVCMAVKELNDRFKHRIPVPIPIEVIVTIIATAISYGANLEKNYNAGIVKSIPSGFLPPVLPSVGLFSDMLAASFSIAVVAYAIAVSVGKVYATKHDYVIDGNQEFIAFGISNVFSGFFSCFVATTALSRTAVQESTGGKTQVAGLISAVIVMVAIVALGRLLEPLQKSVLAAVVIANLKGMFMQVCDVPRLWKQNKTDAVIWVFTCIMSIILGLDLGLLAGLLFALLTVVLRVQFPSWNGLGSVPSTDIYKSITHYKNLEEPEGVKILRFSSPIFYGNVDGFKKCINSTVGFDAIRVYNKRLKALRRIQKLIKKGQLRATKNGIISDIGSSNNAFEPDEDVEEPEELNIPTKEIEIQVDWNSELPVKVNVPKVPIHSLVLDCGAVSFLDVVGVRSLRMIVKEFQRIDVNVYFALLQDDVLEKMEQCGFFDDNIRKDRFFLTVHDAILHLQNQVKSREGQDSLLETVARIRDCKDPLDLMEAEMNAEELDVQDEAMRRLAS

slc26a6 (PAT-1) = target: T4, slc26a6 (PAT-1) (Mus musculus, UniProt Q8CIW6); assay type: cell-based, murine; conditions: 10 μM compound, 10 min preincubation
T4 sequence (Q8CIW6 1-758): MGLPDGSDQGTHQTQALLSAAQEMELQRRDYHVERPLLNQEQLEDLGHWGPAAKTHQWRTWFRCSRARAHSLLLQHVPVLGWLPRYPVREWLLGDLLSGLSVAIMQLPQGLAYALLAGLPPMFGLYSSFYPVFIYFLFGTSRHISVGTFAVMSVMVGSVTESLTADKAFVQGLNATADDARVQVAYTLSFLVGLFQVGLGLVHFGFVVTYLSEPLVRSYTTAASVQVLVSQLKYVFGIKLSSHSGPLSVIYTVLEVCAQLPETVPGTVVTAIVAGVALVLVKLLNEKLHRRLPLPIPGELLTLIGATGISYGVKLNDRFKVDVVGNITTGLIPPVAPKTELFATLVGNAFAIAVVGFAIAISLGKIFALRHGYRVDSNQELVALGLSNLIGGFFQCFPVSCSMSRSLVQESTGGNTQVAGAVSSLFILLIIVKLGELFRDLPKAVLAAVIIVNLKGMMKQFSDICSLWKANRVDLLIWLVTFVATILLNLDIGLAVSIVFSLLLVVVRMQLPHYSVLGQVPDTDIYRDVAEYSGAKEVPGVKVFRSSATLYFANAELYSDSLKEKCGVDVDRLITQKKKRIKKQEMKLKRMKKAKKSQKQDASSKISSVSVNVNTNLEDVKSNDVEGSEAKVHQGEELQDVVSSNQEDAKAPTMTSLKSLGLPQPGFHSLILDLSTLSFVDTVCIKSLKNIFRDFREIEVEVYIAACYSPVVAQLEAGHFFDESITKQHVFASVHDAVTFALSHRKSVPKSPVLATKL

SMILES: COc1ccc2ccc(=O)oc2c1 [S3]
slc26a3 inhibition activity, in words (slc26a3 (DRA)): inactive

SMILES: CCCOc1ccc2c(C)c(CC(=O)O)c(=O)oc2c1C [4ad]
slc26a3 inhibition at 5 μM (slc26a3 (DRA)): no inhibition

SMILES: Cc1c(CC(=O)O)c(=O)oc2c(C)c(OCc3cccc(C(F)(F)F)c3)ccc12 [4be]
Extent of inhibition of slc26a3-mediated anion exchange (slc26a3 (DRA)): fully inhibited | 3 h stool weight, pellet number, and water content (loperamide-treated mice [3]; loperamide-treated mice, 5 mg/kg oral 1 h before loperamide, 5 mg/kg): partially prevented constipation; also recorded: improved | Serum level at 16 h ([1]; mice, single dose 5 mg/kg oral or intraperitoneal, 16 h): little compound remaining | bioavailability ([1]; 5 mg/kg): 16 ± 7% | Inhibition of chloride/iodide exchange, SLC26A9 (SLC26A9): not significantly inhibited | Inhibition of chloride/iodide exchange, slc26a4 (pendrin) (slc26a4 (pendrin)): not significantly inhibited | Inhibition of chloride/iodide exchange, slc26a6 (PAT-1) (slc26a6 (PAT-1)): not significantly inhibited

SMILES: Cc1c(CC(=O)O)c(=O)oc2c(C)c(OCCc3cccc(C(F)(F)F)c3)ccc12 [4as]
slc26a3 inhibition at 5 μM (slc26a3 (DRA)): no inhibition

SMILES: Cc1c(CC(=O)O)c(=O)oc2c(C)c(OCc3cccc(I)c3)ccc12 [4az]
Extent of inhibition of slc26a3-mediated anion exchange (slc26a3 (DRA)): fully inhibited | Effect on stool parameters compared to vehicle (loperamide-treated mice [3]; control mice not treated with loperamide): no significant effect | Stool water content (loperamide-treated mice [3]; loperamide-treated mice, 3 mg/kg oral): fully normalized | Stool water content (loperamide-treated mice [3]; loperamide-treated mice, 10 mg/kg oral): fully normalized | Duration of predicted therapeutic concentrations in serum ([1]; mice, single 10 mg/kg dose, oral (b1), oral or intraperitoneal): > 72 h | bioavailability ([1]; 10 mg/kg): 39 ± 4% | Inhibition of chloride/iodide exchange, SLC26A9 (SLC26A9): not significantly inhibited | Inhibition of chloride/iodide exchange, slc26a4 (pendrin) (slc26a4 (pendrin)): not significantly inhibited | Inhibition of chloride/iodide exchange, slc26a6 (PAT-1) (slc26a6 (PAT-1)): not significantly inhibited

Second part, led by results:

bioavailability ([1]; 5 mg/kg): 54 ± 6.5%
SMILES: Cc1c(CC(=O)O)c(=O)oc2c(C)c(OCc3cccc(Br)c3)ccc12 [4ba, 2-(7-((3-Bromobenzyl)oxy)-4,8-dimethyl-2-oxo-2H-chromen-3-yl)acetic Acid]
Efficacy in a mouse model of constipation (loperamide-treated mice [2]): showed efficacy

slc26a3 inhibition at 5 μM (slc26a3 (DRA)): inactive
SMILES: Cc1c(CC(=O)O)c(=O)oc2c(C)c(OCCn3cccc3)ccc12 [4ap]

slc26a3 inhibition activity, in words (slc26a3 (DRA)): inactive
SMILES: Cc1c(OCc2cccc(Br)c2)ccc2cc(C(=O)O)c(=O)oc12 [8aa]

slc26a3 inhibition at 5 μM (slc26a3 (DRA)): no inhibition
SMILES: Cc1cccc(S(=O)(=O)Oc2ccc3c(C)c(CC(=O)O)c(=O)oc3c2C)c1 [4aq]

slc26a3 inhibition activity, in words (slc26a3 (DRA)): much reduced inhibition
SMILES: Cc1c(CC(N)=O)c(=O)oc2c(C)c(OCc3cccc(Br)c3)ccc12 [8ae]

slc26a3 inhibition at 5 μM (slc26a3 (DRA)): no inhibition
SMILES: Cc1c(CC(=O)O)c(=O)oc2c(C)c(OS(=O)(=O)c3cccc(Cl)c3)ccc12 [4ar]

slc26a3 inhibition at 5 μM (slc26a3 (DRA)): no inhibition
SMILES: C=CCOc1ccc2c(C)c(CC(=O)O)c(=O)oc2c1C [4aa]
